Assay results reported in PubChem BioAssay (NCI).
Several values for one entry are separate records, joined by “and”; a condition that tells them apart may be missing. Equal values may be shown once.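 Compound exposure: 48 hours, 5 concentrations, 96-well plates. GI50 marks 50% less growth. Definition used: TGI = concentration required for complete inhibition of growth.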

Tests used:
Test in all cases: inhibition of tumour cell growth, NCI panel, 48 h
[1] = tested on: PC-3 prostate
[2] = tested on: SNB-75 CNS
[3] = tested on: SK-MEL-2 melanoma
[4] = tested on: LOX IMVI melanoma
[5] = tested on: MALME-3M melanoma
[6] = tested on: SF-295 CNS
[7] = tested on: RXF 393 renal
[8] = tested on: HCT-15 colon
[9] = tested on: OVCAR-3 ovarian
[10] = tested on: COLO 205 colon

| Compound | TGI [1] [µM] | GI50 [2] [µM] | TGI [2] [µM] | GI50 [3] [µM] | TGI [3] [µM] | GI50 [4] [µM] | TGI [4] [µM] | GI50 [5] [µM] | TGI [5] | GI50 [6] [µM] | TGI [6] [µM] | GI50 [7] [µM] | TGI [7] | GI50 [8] [µM] | TGI [8] [µM] | GI50 [9] [µM] | TGI [9] [µM] | GI50 [10] [µM] | TGI [10] [µM] | GI50 [1] [µM] |
| --- | --- | --- | --- | --- | --- | --- | --- | --- | --- | --- | --- | --- | --- | --- | --- | --- | --- | --- | --- | --- |
| C=C(C)C(=O)NC(N)=NC#N | 293 | 154 | 289 | 134 | 261 | 28.6 | 96 | 80.8 | 63.2 µM and 214 µM | 179 | 330 | 63 | 65.7 µM and 200 µM | 103 | 243 | 129 | 259 | 80.5 | 206 | – |
| CC(=O)[O-].CC(=O)[O-].[Mn+2].c1ccc(/C(=N\Nc2ccccn2)c2ccccn2)cc1 | 14.5 | – | 17.7 | – | – | – | 2.06 | 0.0362 | 16.8 µM | – | 16.9 | – | 14 µM | 0.0432 | 16.1 | – | 0.00913 | – | – | – |
| COc1ccc(-c2coc3ncnc(N)c23)cc1 | > 25 | > 25 | > 25 | > 25 | > 25 | > 25 | > 25 | > 25 | > 25 µM | > 25 | > 25 | > 25 | > 25 µM | > 25 | > 25 | > 25 | > 25 | > 25 | > 25 | > 25 |
| CC1=CC2=C(OCO1)C(=O)c1ccccc1C2=O | > 100 | – | 9.1 | – | 2.23 | – | 8.38 | – | 6.48 µM | – | 8.61 | – | 12.5 µM | – | 51.6 | – | 13.3 | – | 11.5 | – |
| [N-]=[N+]=NC1(N=[N+]=[N-])C(=O)NN=C(c2ccccc2)C1=O (stereo unspecified) | > 100 | – | > 100 | – | – | – | 92.9 | – | > 100 µM | – | > 100 | – | > 100 µM | – | > 100 | – | > 100 | – | > 100 | – |
| CN1CCN(C(=O)c2ccc(NC(=O)Nc3ccc(N(C)c4ccnc(Nc5ccc(CS(C)(=O)=O)cc5)n4)cc3)cc2)CC1 | > 25 | 12.7 | > 25 | > 12.7 | > 25 | 10 | > 25 | > 15 | > 25 µM | > 22.5 | > 25 | 24.2 | > 25 µM | > 25 | > 25 | 7.44 | > 19.4 | 13 | > 25 | 9.09 |
| CCCCCCN(CCCCCC)C(=N)c1ccnc2ccccc12 | 20.2 | 4.68 | 17.3 | 3.66 | 12.2 | 2.17 | 6.33 | 2.25 | 5.64 µM | 1.39 | 13.4 | 4.57 | 15.5 µM | 3.82 | 16.6 | 10.3 | 22.4 | 1.45 | 2.97 | 5.81 |
| C[C@H]1CCC/C=C/[C@@H]2C[C@H](O)C[C@H]2[C@H](O)[C@H](S(=O)c2ccc(O)cc2)CC(=O)O1 (stereo partly specified) | – | < 0.018 | > 100 | 0.0485 | 0.504 | 0.0208 | 0.0533 | 0.0202 | 0.0709 µM | 0.0698 | > 100 | < 0.0106 | 0.061 µM | 0.0443 | 1.69 | 0.021 | 1.02 | 0.0183 | 0.0544 | 0.0343 |
| O=c1oc2ccc(Cl)cc2c(=O)n1-c1ccc(Cl)cc1F | 5.04 | 0.219 | 1.54 | 0.37 | 2.26 | 0.424 | 2.27 | 0.313 | 1.55 µM | 0.856 | 2.43 | 0.512 | 1.85 µM | 0.791 | 6.69 | 0.355 | 13.8 | 6.74 | 22.4 | 0.812 |
| CCOC(=O)[C@H](CSSc1ncnc2cc[nH]c12)NC(=O)[C@@H](C)c1ccc2cc(OC)ccc2c1 | > 100 | 0.388 | > 100 | 0.791 | > 29 | 0.081 | 18.1 | 4.02 | > 96.5 µM | 0.438 | > 100 | 1.62 | > 100 µM | 1.73 | > 100 | 0.125 | > 100 | 1.85 | > 100 | 2.78 |
| O=C(O)C(=O)Cc1ccc2c(c1)OCO2 | > 100 | – | > 100 | – | > 100 | – | > 100 | – | – | – | > 100 | – | > 100 µM | – | > 100 | – | > 100 | – | > 100 | – |
| O=S(=O)(NCCNc1cc(-c2cn(-c3ccccc3)nc2-c2cccc(O)c2)ccn1)c1ccc(C(F)(F)F)cc1 | 10.9 | 2.63 | 14 | 2.36 | 7.22 | 1.7 | 3.29 | 1.68 | 4.57 µM | – | – | 2.52 | 10 µM | 2.34 | 11 | 2.2 | 5.58 | 1.81 | 4 | 2.47 |
| O=c1[nH]cnc2c(C3OC(CO)C(O)C3O)[nH]nc12 (stereo unspecified) | > 100 | – | > 100 | – | – | – | > 100 | – | > 100 µM | – | > 100 | – | > 100 µM | – | > 100 | – | 53.5 | – | > 100 | – |
| CCCCCCCCN(CCCCCCCC)C(=N)c1ccnc2ccccc12 | 2.52 | 1.01 | 2.36 | 1.78 | 3.35 | – | – | 1.12 | 2.59 µM | 1.52 | 2.92 | 0.874 | 2.36 µM | 0.348 | 1.33 | 1.2 | 2.54 | 0.2 | 0.445 | 1.16 |
